Laboratory results: patent US20240228446A1, “PREPARATION METHOD FOR BICYCLIC COMPOUND AND APPLICATION AS ANTIFUNGAL AGENT” (priority 2021, published 2024)
In brackets after ≈: the same amount, converted by molar mass.

Legend:
[1] = tested on: Candida albicans ATCC MYA-2876; assay: Minimal inhibitory concentration (MIC) test on fungal growth (CLSI M27, yeasts); assay type: cell-based; conditions: lowest concentration inhibiting growth of yeast by 50%, 35° C., 24 hours, RPMI1640; for MIC: Candida albicans, read-out: MIC Candida albicans ATCC MYA-2876
In short: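 Broth microdilution followed CLSI M27 in RPMI1640 buffered with 0.165 M MOPS, pH 7.0, with a final inoculum of 500–2500 CFU/mL. Eleven 2-fold compound concentrations were tested, and plates were incubated 24 h at 35 °C. MIC was the lowest concentration giving 50% growth inhibition, read visually with optional OD530 assistance.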

[2] = tested on: Aspergillus fumigatus ATCC MYA-4609; assay: Minimal inhibitory concentration (MIC) test on fungal growth (CLSI M38, Aspergillus); assay type: cell-based; conditions: lowest concentration inhibiting Aspergillus by 100%, 35° C., 48 hours, RPMI1640; for MIC: Aspergillus fumigatus, read-out: MIC Aspergillus fumigatus ATCC MYA-4609
Method: • RPMI1640 medium: Brand: Gibco, article number: 31800-014 • Sabouraud dextrose agar (SDA): Brand: Hope Bio, article number: HB0253-81 • Voriconazole: Brand: Adamas, article number: 22105A • Amphotericin B: Brand: AbCam, article number: ab141199
MIC test was conducted in accordance with the guidelines and requirements of CLSI M27 (for yeasts) and M38 (for Aspergillus).
Strain preparation: The strains were inoculated 1 day in advance by streaking on SDA plates with glycerol strains stored at −80° C. The strains were cultured at 35° C. and 40 to 60% humidity for 18 to 24 hours. Streak inoculation of Aspergillus fumigatus and Cryptococcus neoformans was required to be done 3 days and 2 days in advance, respectively.
Preparation of culture medium and compounds: The liquid culture medium RPMI was prepared with pure water, and 0.165 mol/L MOPS was added to adjust the pH to 7.0. The mixture was filtered with a 0.22 μm-membrane filter, sterilized, and stored at 4° C. (no more than 3 months). 0.85% physiological saline was sterilized at 121° C. for 30 min and then stored at room temperature (no more than 1 week). The compounds were dissolved in DMSO to 12.8 mg/mL and stored at −20° C.
For Aspergillus, 5 mL of physiological saline was added to cover the mycelium, and the spores were gently scraped off with a spreader. The spore suspension was then transferred to a sterile test tube. An appropriate amount of spore suspension was taken and counted under a microscope using a hemocytometer. Spore concentration was adjusted to approximately 0.4 to 5×10^4 spores/mL using RPMI1640 medium.
The compound was diluted to the highest 800 μg/mL (or 400 μg/mL) with DMSO, and a 10-step 2-fold gradient dilution was performed, resulting in 11 concentrations. 2 μL of the gradient-diluted compound was transferred to the corresponding wells of a 96-well plate, and then 198 μL of the inoculum was transferred to the test plate. The plate was incubated at 35° C. for 24 hours (Aspergillus fumigatus and Cryptococcus neoformans were incubated for 48 and 72 hours, respectively).
After the incubation, the growth of the fungi was visually observed. The lowest concentration of the compound that inhibited the growth of yeast by 50% (inhibited Aspergillus by 100%) was defined as the minimum inhibitory concentration (MIC, μg/mL). A magnifying glass or reading at OD530 nm could be used to assist in determining the MIC. Photos were taken of the test plates for record keeping.

[3] = Drug-drug interaction / pharmacokinetic study of single drug and combination with nifedipine by gavage; conditions: CD1 mice, ketoconazole 30 mg/kg alone vs ketoconazole 30 mg/kg + nifedipine 15 mg/kg
Method: The dosing solution was prepared on the day of administration. An appropriate amount of nifedipine was precisely weighed into a centrifuge tube, then an appropriate volume of 0.5% MC was added thereto and vortexed to dissolve, resulting in a dosing solution with a concentration of 1.5 mg/mL.
Appropriate amounts of ketoconazole and isavuconazonium sulfate (CAS #946075-13-4) were precisely weighed and placed into separate centrifuge tubes. An appropriate volume of 0.5% MC was added to each tube and vortexed to dissolve, resulting in dosing solutions with concentrations of 3 mg/mL and 12 mg/mL, respectively.
An appropriate amount of the compound of the example of the present disclosure was precisely weighed into a centrifuge tube, then an appropriate volume of 16% SBECD was added thereto and vortexed to dissolve, resulting in a dosing solution with a concentration of 10 mg/mL.
CD1 mice, 6 to 8 weeks old, male, were divided into seven groups. […]

Compound	MIC [1] [µg/mL]	MIC [2] [µg/mL]	MIC Candida albicans ATCC MYA-2876 [1] [µg/mL]	MIC Aspergillus fumigatus ATCC MYA-4609 [2] [µg/mL]	exposure to ketoconazole, monotherapy group vs combination therapy group [3]
O[C@H](COc1ccc(C23CC(CC(O)(Cn4cncn4)c4ccc(F)cc4F)(C2)C3)cc1)C(F)(F)F (stereo partly drawn) [Compound 90]	≤ 0.0039	0.5 (≈ 0.981 µM)			
OC(COc1ccc(C23CC(C(F)(F)C(O)(Cn4cncn4)c4ccc(F)cc4F)(C2)C3)cn1)C(F)(F)F (stereo not drawn) [Compound 98]			≤0.0039	2 (≈ 3.66 µM)	
OC(Cn1cnnn1)(c1ccc(F)cc1F)C(F)(F)C12CC(c3ccc(OCC4(F)COC4)cc3)(C1)C2 (stereo not drawn) [Compound 121]	0.0078 (≈ 0.0149 µM)	8 (≈ 15.3 µM)			
N#Cc1ccc(C23CC(C(F)(F)C(O)(Cn4cncn4)c4ccc(F)cc4F)(C2)C3)cn1 (stereo not drawn) [Compound 128]			0.0078 (≈ 0.0176 µM)	4 (≈ 9.02 µM)	
O=C(COc1ccc(C23CC(C(F)(F)C(O)(Cn4cncn4)c4ccc(F)cc4F)(C2)C3)cc1)NC1CC1 (stereo not drawn) [Compound 129]	0.0078 (≈ 0.0147 µM)	4 (≈ 7.54 µM)			
CS(=O)(=O)COc1ccc(C23CC(C(F)(F)C(O)(Cn4cnnn4)c4ccc(F)cc4F)(C2)C3)cc1 (stereo not drawn) [Compound 131]	0.0078 (≈ 0.0148 µM)	8 (≈ 15.2 µM)			
O[C@H](COc1ccc(C23CC(C(F)(F)C(O)(Cn4cnnn4)c4ccc(F)cc4F)(C2)C3)cc1F)C(F)(F)F (stereo partly drawn) [Compound 134]	0.0078 (≈ 0.0138 µM)	4 (≈ 7.09 µM)			
CC(Oc1ccc(C23CC(C(F)(F)C(O)(Cn4cnnn4)c4ccc(F)cc4F)(C2)C3)cc1)C(O)C(F)(F)F (stereo not drawn) [Compound 135]	0.016 (≈ 0.0285 µM)	8 (≈ 14.3 µM)			
COC(COc1ccc(C23CC(C(F)(F)C(O)(Cn4cnnn4)c4ccc(F)cc4F)(C2)C3)cc1)C(F)(F)F (stereo not drawn) [Compound 136]	0.016 (≈ 0.0285 µM)	4 (≈ 7.14 µM)			
OC(COc1ccc(C23CC(C(F)(F)C(O)(Cn4cnnn4)c4ccc(F)cc4F)(C2)C3)cc1)C(F)F (stereo not drawn) [Compound 137]	≤ 0.0039	8 (≈ 15.1 µM)			
OC(COc1ccc(C23CC(C(F)(F)C(O)(Cn4cnnn4)c4ccc(F)cc4F)(C2)C3)cc1)CC(F)(F)F (stereo not drawn) [Compound 142]			0.0078 (≈ 0.0139 µM)	8 (≈ 14.3 µM)	
OC(COc1ccc(C23CC(C(F)(F)C(O)(Cn4cnnn4)c4ccc(F)cc4F)(C2)C3)cc1)C1CC1 (stereo not drawn) [Compound 144]	0.0078 (≈ 0.015 µM)	8 (≈ 15.4 µM)			
OC1(COc2ccc(C34CC(C(F)(F)C(O)(Cn5cnnn5)c5ccc(F)cc5F)(C3)C4)cc2)CC(F)(F)C1 (stereo not drawn) [Compound 149]	≤ 0.0039	8 (≈ 14.4 µM)			
OC1(COc2ccc(C34CC(C(F)(F)C(O)(Cn5cncn5)c5ccc(F)cc5F)(C3)C4)cc2)COC1 (stereo not drawn) [Compound 151]	≤ 0.0039	2 (≈ 3.85 µM)			
CC(=O)N1CCN(c2ccc(OCC3COC(Cn4ccnc4)(c4ccc(Cl)cc4Cl)O3)cc2)CC1 (stereo not drawn) [ketoconazole]					not significantly different

More lines, main results first:

MIC [1] [µg/mL]	MIC [2] [µg/mL]	MIC Candida albicans ATCC MYA-2876 [1] [µg/mL]	MIC Aspergillus fumigatus ATCC MYA-4609 [2] [µg/mL]	Compound	exposure to ketoconazole, monotherapy group vs combination therapy group [3]
≤ 0.0039	0.5 (≈ 0.981 µM)			O[C@H](COc1ccc(C23CC(C[C@](O)(Cn4cncn4)c4ccc(F)cc4F)(C2)C3)cc1)C(F)(F)F [Compound 90A]	
		≤0.0039	4 (≈ 7.31 µM)	O[C@@H](COc1ccc(C23CC(C(F)(F)[C@](O)(Cn4cnnn4)c4ccc(F)cc4F)(C2)C3)cn1)C(F)(F)F [Compound 97A]	
		0.0078 (≈ 0.0142 µM)	8 (≈ 14.6 µM)	O[C@H](COc1ccc(C23CC(C(F)(F)[C@@](O)(Cn4cnnn4)c4ccc(F)cc4F)(C2)C3)cn1)C(F)(F)F [Compound 97B]	
		≤0.0039	1 (≈ 1.83 µM)	O[C@H](COc1ccc(C23CC(C(F)(F)[C@](O)(Cn4cncn4)c4ccc(F)cc4F)(C2)C3)cn1)C(F)(F)F [Compound 98A]	
		≤0.0039	2 (≈ 3.66 µM)	O[C@H](COc1ccc(C23CC(C(F)(F)[C@@](O)(Cn4cncn4)c4ccc(F)cc4F)(C2)C3)cn1)C(F)(F)F [Compound 98B]	
		≤0.0039	4 (≈ 7.66 µM)	O[C@@](Cn1cnnn1)(c1ccc(F)cc1F)C(F)(F)C12CC(c3ccc(OCC4(F)COC4)cc3)(C1)C2 [Compound 121A]	
≤ 0.0039	2 (≈ 3.54 µM)			O[C@H](COc1ccc(C23CC(C(F)(F)[C@](O)(Cn4cnnn4)c4ccc(F)cc4F)(C2)C3)cc1F)C(F)(F)F [Compound 134A]	
≤ 0.0039	2 (≈ 3.61 µM)			OC1(COc2ccc(C34CC(C(F)(F)[C@](O)(Cn5cnnn5)c5ccc(F)cc5F)(C3)C4)cc2)CC(F)(F)C1 [Compound 149A]	
